Patent publication US4014909A, “Esters of 21-thiol steroids” (priority 1974, dated 1977)
“Also recorded” adds a separate entry of the source. Like-named read-outs stand apart in the source and are kept apart here.

What was measured:
granuloma = assay: Anti-proliferative (anti-granulomatous) activity, cotton pellet granuloma; assay type: in vivo, rat (Wistar, male); settings: rat, cotton pellet impregnated with product, 6 days
Source text: The experimental local anti-inflammatory activity of the compounds presented was estimated in rats by their anti-proliferative (anti-granulomatous) action, and for certain of these, by their anti-arthritic activity and their antiexudative activity.
The anti-proliferative (anti-granulomatous) activity has been brought into evidence by means of a test, the principle of which is as follows.
The introduction of a foreign body into an organism produces a set of inflammatory reactions which results, in the chromic stage, in the formation of a defence granuloma around the foreign body. The proliferation of this granuloma is eliminated or attenuated by anti-inflammatory agents.
The technique employed is very similar to that described by Winter and Porter (J. Am. Pharm. Ass. 46/9. 515) 1957 with rats.
Homogeneous groups of 6 male adult rats of the Wistar Strain were used, distributed at random and having weights comprised between 180 and 200 grams.
The implants or pellets were prepared from rolls of dental cotton; the weight of the pellets was between 35 and 40 mg.
The products to be tested were dissolved in dimethylsulphoxide (DMSO) and the solutions obtained, deposited on the pellets at a volume of 0.2 ml per pellet. The DMSO was then evaporated under high vacuum at ambient temperature, the complete elimination of the solvent being checked by weighing the pellets. "Reference" pellets, soaked with the solvent alone, were treated in the same manner.
Immediately before their introduction, the pellets were soaked with an antibiotic solution (0.1 ml. of a solution of penicillin G and streptomycin containing 200,000 of penicillin G and 0.1 gram of streptomycin sulphate per cc.).
Each animal received two pellets in the sub-cutaneous dorsal tissue on each side of the spinal column, at the costo-lumbar angle, under light anaesthesia with ether. The day of the operation and for three days after, the animals received by sub-cutaneous injection, 0.1 ml. of the antibiotic solution in the caudal region.
Six days after the introduction, the animals were killed by inhalation of chloroform and the granulomae were extracted and weighed, (fresh weight), and then the initial weights of the cotton pellets were subtracted from the total weight.
Certain non-sulphured steroids causing a large increase in protein catabolism which can influence the formation of the granuloma independently of their anti-inflammatory action, the weights of the granulomae were expressed as a percentage of the body weight (technique proposed by G. Dipasquale and A. Meli: J. Pharm. Pharmacol. (1965), 17,367-382) and the anti-proliferative effect of the various compounds as a percentage inhibition with respect to the reference granulomae. The DE50 were calculated by transferring the results on to semi-logarithmic paper.

[1] = tested on: liver, kidneys, spleen, thymus, stomach; assay type: in vivo, rat (Sprague-Dawley); settings: 4 weeks
Source text: (§1) The action on the endocrine glands and the genital tractus, and a possible ulcerogenic effect were investigated, together with the effects on the glucidic and proteic metabolisms, on the hydro-mineral equilibrium after long-term administration.
The principle of the tests employed is as follows.
The ulcer-producing action of certain corticoids, after repeated administration is well known, but the mechanism of this action still remains doubtful.
(§2) These studies have been carried out for some of the products according to the invention after sub-chronic administration.
(§3) There were utilized groups of 10 male rats and ten female rats of Sprague-Dawley S.P.F. strain which have been given the products under study by sub-cateneous methods daily for four weeks.
(§4) The products were administered in suspension in 5 % carboxy-methyl-cellulose under a volume of 0.5 ml. per 100 grams of body weight, in three different doses, the animals of the reference lot receiving the same volume of the vehicle alone.
(§5) At the end of this study there were extracted:
(§6) The samples numbered (1), (2) and (3) were immediately weighed. All the samples were then fixed for histological examination in the Bouin-Holland fixator.
(§7) During the course of the long-term study, the JO 1016 was administered daily to the male and female rats in doses of 100 mg/kg, 250 mg/kg, 500 mg/kg by the sub-cutaneous route.

[2] = Glycemia after 4 weeks treatment; assay type: in vivo, rat (Sprague-Dawley)
Experimental: as §1, §3, §4
(§8) In order to confirm certain previous results of the pharmacological short-term study, there has furthermore been determined, for each lot of animals:
(§9) at the end of the treatment:
as §7
The following Tables XIV and XV indicate the results of the proportions of glycemia with the reference animals and animals treated for 4 weeks following the procedure (h)

[3] = Hydro-mineral equilibrium: sodium excretion after 4 weeks treatment; assay type: in vivo, rat (Sprague-Dawley); settings: male rat, 500 mg/kg s.c.
Experimental: as §1, §3, §4, §8, §9
the sodium excretion in 5 hours
as §7

[4] = Body weight after long-term sub-cutaneous treatment; assay type: in vivo, rat (Sprague-Dawley); settings: 4 weeks
Experimental: as §1, §3, §4, §8
The evolution of weight and the consumption of food during the treatment;
During the course of the long-term study, the JO 1016 was administered daily to the male and female rats in doses of 100 mg/kg, 250 mg/kg, 500 mg/kg by the sub-cutaneous route. […]

[5] = tested on: adrenal glands, gonads, seminal vesicles, uterine tubes; assay: Action on the endocrine glands and the genital tractus: organ weights and histology, long-term treatment; assay type: in vivo, rat (Sprague-Dawley); settings: for Ovaries weight / Seminal vesicles weight / Testicles weight / Uterine tubes weight / Adrenal glands weight: 4 weeks, N.S.
Source text: as §1
The repeated administration of corticoids may result in an inhibition of the secretion of the ante-hypophysiary hormone which is shown by a lowering of the effectiveness of the target-glands (example: adrenal-glandes) and indirectly of certain organs which are under the dependence of a hormone secretion (example: genital tractus).
as §2, §3, §4, §5
(2) the gonads (testicles or ovaries);
(3) the seminal vesicles or the uterine tubes;
as §6, §7
After a long-term treatment by the JO 1016, following the procedure (h), the average weights of the following organs: adrenal glandes, gonads, seminal vesicles, uterine tubes are indicated in the following Table XXII

Compound: CC(=O)OCC(=O)[C@@]1(O)CC[C@H]2[C@@H]3CCC4=CC(=O)CC[C@]4(C)[C@H]3[C@@H](O)C[C@@]21C [Hydrocortisone (acetate), Hydrocortisone acetate, reference compound]
- ED50 anti-proliferative activity (granuloma): 1.05 mg/pellet

Compound: CC(C)(C)C(=O)SCC(=O)[C@@]1(O)CC[C@H]2[C@@H]3CCC4=CC(=O)CC[C@]4(C)[C@H]3[C@@H](O)C[C@@]21C [JO 1016, Dihydroxy-11β, 17α thio-21 dioxo-3,20 pregnene-4-21 pivalate]
- ED50 anti-proliferative activity (granuloma): 0.35 mg/pellet
- Kidneys: presence of abscess (cases) ([1]; 250 mg/kg s.c. daily): 0/10
- Liver: presence of abscess (cases) ([1]; 250 mg/kg s.c. daily): 0/10
- Spleen: atrophied (cases) ([1]; 250 mg/kg s.c. daily): 0/10
- Stomach: ulcerated (cases) ([1]; 250 mg/kg s.c. daily): 0/10
- Stomach: ulcerated and infected (cases) ([1]; 250 mg/kg s.c. daily): 0/10
- Thymus: atrophied (cases) ([1]; 250 mg/kg s.c. daily): 0/10
- Kidneys: presence of abscess (cases) ([1]; 500 mg/kg s.c. daily): 0/10
- Liver: presence of abscess (cases) ([1]; 500 mg/kg s.c. daily): 0/10
- Spleen: atrophied (cases) ([1]; 500 mg/kg s.c. daily): 0/10
- Stomach: ulcerated (cases) ([1]; 500 mg/kg s.c. daily): 0/10
- Stomach: ulcerated and infected (cases) ([1]; 500 mg/kg s.c. daily): 0/10
- Thymus: atrophied (cases) ([1]; 500 mg/kg s.c. daily): 0/10
- Glycemia, average ± standard error ([2]; female, 500 mg/kg s.c.): 1,10 ± 0,04 g/liter
- Glycemia, average ± standard error ([2]; male, 100 mg/kg s.c.): 1.2 ± 0.04 g/L
- Glycemia, average ± standard error ([2]; male, 250 mg/kg s.c.): 1.2 ± 0.05 g/L
- Glycemia, percentage of variation and probabilities ([2]; male, 500 mg/kg s.c.): N.S.
- Sodium excreted, average ± standard error [3]: 1,41 ± 0,116 Meq
- Body weight, average ± standard error ([4]; female rats, 100 mg/kg s.c.): 219 ± 3.06 g
- Body weight, percentages of variation and probabilities ([4]; female rats, 100 mg/kg s.c.): N.S.
- Body weight, average ± standard error ([4]; female rats, 250 mg/kg s.c.): 216 ± 3.18 g
- Body weight, percentages of variation and probabilities ([4]; female rats, 250 mg/kg s.c.): N.S.
- Body weight, average ± standard error ([4]; female rats, 500 mg/kg s.c.): 198 ± 4.85 g
- Body weight, average ± standard error ([4]; male rats, 100 mg/kg s.c.): 299 ± 45.2 g
- Body weight, percentages of variation and probabilities ([4]; male rats, 100 mg/kg s.c.): N.S.
- Body weight, average ± standard error ([4]; male rats, 250 mg/kg s.c.): 289 ± 7.7 g
- Body weight, percentages of variation and probabilities ([4]; male rats, 250 mg/kg s.c.): N.S.
- Body weight, average ± standard error ([4]; male rats, 500 mg/kg s.c.): 274 ± 2,5 g
- Ovaries weight ([5]; 100 mg/kg s.c.): 38.4 mg
- Seminal vesicles weight ([5]; 100 mg/kg s.c.): 328.0 mg
- Testicles weight ([5]; 100 mg/kg s.c.): 1.143 g
- Uterine tubes weight ([5]; 100 mg/kg s.c.): 211.8 mg
- Ovaries weight ([5]; 250 mg/kg s.c.): 38.3 mg
- Seminal vesicles weight ([5]; 250 mg/kg s.c.): 296.0 mg
- Testicles weight ([5]; 250 mg/kg s.c.): 1.144 g
- Uterine tubes weight ([5]; 250 mg/kg s.c.): 184.7 mg
- Ovaries weight ([5]; 500 mg/kg s.c.): 39.3 mg
- Seminal vesicles weight ([5]; 500 mg/kg s.c.): 274.6 mg
- Testicles weight ([5]; 500 mg/kg s.c.): 1.207 g
- Uterine tubes weight ([5]; 500 mg/kg s.c.): 165.4 mg
- Adrenal glands weight ([5]; female rats, 100 mg/kg s.c.): 26.7 mg
- Adrenal glands weight ([5]; female rats, 250 mg/kg s.c.): 24,5 mg
- Adrenal glands weight ([5]; female rats, 500 mg/kg s.c.): 27,0 mg
- Histological examination of organs ([5]; long-term s.c. treatment): has not furthermore brought into evidence any alteration of their structure; also recorded: neither atrophy nor surrenal hypertrophy; also recorded: nor modification of the functional aspect of the male and female genital organs
- Adrenal glands weight ([5]; male rats, 100 mg/kg s.c.): 14.9 mg
- Adrenal glands weight ([5]; male rats, 250 mg/kg s.c.): 12,3 mg
- Adrenal glands weight ([5]; male rats, 500 mg/kg s.c.): 13.5 mg
